Data from patent publication US10689390B2, “Tricyclic fused derivatives of 1-(cyclo)alkyl pyridin-2-one useful for the treatment of cancer” (JUBILANT BIOSYS LIMITED, priority 2015, dated 2020).

Columns and labels:
BRD4-BD1 = BRD4-BD1 (Homo sapiens (Human), UniProt O60885); assay: BRD4 AlphaLISA (Perkin Elmer); type: binding; settings: 5 nM BRD4-BD1, 12 nM biotinylated substrate, read-out: BRD4_BD1 IC50_μM
Procedure: BRD4 AlphaLISA (Perkin Elmer)
Compounds were diluted by step-down dilution method (final concentration of DMSO was 1%) and added to the wells of a 384 well opti plate at desired concentrations. 5 nM BDR4-BD1 enzyme (produced in-house) and 12 nM of biotinylated substrate were added to the wells, covered and incubated at room temperature (RT) for 1 h. At the end of 1 h 250 ng of GSH acceptor beads were added to the well and incubated for 1 h at RT; then 500 ng of streptavidin donor beads were added and incubated again for 1 h at RT. Plates were read in a Pherastar reader at 680 nm excitation and 570 nm emission. As detailed above, compounds were tested for both BRD4 enzyme inhibitory activities and IC50 were determined.

AML cell line MV4-11 = assay: Anticancer activity: Alamar Blue 3-day proliferation assay; type: cell-based; settings: Homo sapiens, MV4-11 cells, 72 h incubation, read-out: MV4-11 EC50_μM
Procedure: Anticancer Activity: Alamar Blue Assay
The impact of the compounds on cancer cell proliferation was determined using the AML cell line MV4-11 (ATCC) in a 3-day proliferation assay. MV4-11 cells were maintained in RPMI supplemented with 10% FBS at 37° C., 5% CO2. For compound testing, MV4-11 cells were plated in a 96-well black bottom plate at a density of 15,000 cells/well in 100 μL culture media and incubated at 37° C. overnight. Compound dilution series were prepared in DMSO via a 3-fold serial dilution from […]. The DMSO dilution series were then diluted with media, with the final compound concentrations added to the wells ranging from […]. […] The fluorescent readings from the Alamar Blue assay were normalized to the DMSO treated cells and analyzed using the GraphPad Prism software with sigmoidal curve fitting to obtain EC50.

Structure (SMILES) | IC50 (BRD4-BD1) | EC50 (AML cell line MV4-11)
CCOC(=O)CC1OC(c2ccc(Cl)cc2)c2cc(OC)ccc2-c2cn(C)c(=O)cc21 (racemic) [Compound 1, ±Ethyl 2-(-7-(4-chlorophenyl)-9-methoxy-2-methyl-3-oxo-2,3,5,7-tetrahydrobenzo[5,6]oxepino[4,3-c]pyridin-5-yl)acetate] | 24 nM | –
CCOC(=O)CC1OC(C2CCCCC2)c2cc(OC)ccc2-c2cn(C)c(=O)cc21 (racemic) [Compound 2, ±Ethyl-2-(7-cyclohexyl-9-methoxy-2-methyl-3-oxo-2,3,5,7-tetrahydrobenzo[5,6]oxepino[4,3-c]pyridin-5-yl)acetate] | 10 nM | 1 nM
CCOC(=O)CC1N=C(c2ccc(Cl)cc2)c2cc(OC)ccc2-c2cn(C)c(=O)cc21 (racemic) [Compound 14, ±-Ethyl-2-(7-(4-chlorophenyl)-9-methoxy-2-methyl-3-oxo-3,5-dihydro-2H-benzo[c]pyrido[3,4-e]azepin-5-yl)acetate] | – | 2 nM
CCOC(=O)CC1N=C(c2c(F)cccc2F)c2cc(OC)ccc2-c2cn(C)c(=O)cc21 (racemic) [Compound 23, ±Ethyl-2-(7-(2,6-difluorophenyl)-9-methoxy-2-methyl-3-oxo-3,5-dihydro-2H-benzo[c]pyrido[3,4-e]azepin-5-yl)acetate] | 1 nM | 5 nM
CCNC(=O)CC1N=C(CC2CC2)c2cc(OC)ccc2-c2cn(C)c(=O)cc21 (racemic) [Compound 30, ±2-(7-(cyclopropylmethyl)-9-methoxy-2-methyl-3-oxo-3,5-dihydro-2H-benzo[c]pyrido[3,4-e]azepin-5-yl)-N-ethylacetamide] | 10 nM | 118 nM
CCNC(=O)CC1N=C(C(F)(F)F)c2cc(OC)ccc2-c2cn(C)c(=O)cc21 (racemic) [Compound 32, ±2-(9-methoxy-2-methyl-3-oxo-7-(trifluoromethyl)-3,5-dihydro-2H-benzo[c]pyrido[3,4-e]azepin-5-yl)-N-ethylacetamide] | 49 nM | 108 nM
CCNC(=O)CC1N=C(c2ccc(Cl)cc2)c2cc(C(F)(F)F)ccc2-c2cn(C)c(=O)cc21 (racemic) [Compound 35, ±2-(7-(4-chlorophenyl)-2-methyl-3-oxo-9-(trifluoromethyl)-3,5-dihydro-2H-benzo[c]pyrido[3,4-e]azepin-5-yl)-N-ethylacetamide] | 77 nM | 40 nM
CCNC(=O)CC1N=C(c2ccc(Cl)cc2)c2cc(F)ccc2-c2cn(C)c(=O)cc21 (racemic) [Compound 37, ±2-(7-(4-chlorophenyl)-9-fluoro-2-methyl-3-oxo-3,5-dihydro-2H-benzo[c]pyrido[3,4-e]azepin-5-yl)-N-ethylacetamide] | 4 nM | 28 nM
CCNC(=O)CC1N=C(c2ccc(Cl)cc2C)c2cc(OC)ccc2-c2cn(C)c(=O)cc21 (racemic) [Compound 39, ±2-(7-(4-chloro,2-methylphenyl)-9-methoxy-2-methyl-3-oxo-3,5-dihydro-2H-benzo[c]pyrido[3,4-e]azepin-5-yl)-N-ethylacetamide] | 4 nM | 8 nM
CCNC(=O)C[C@H]1O[C@H](c2ccc(Cl)cc2)c2cc(OC)ccc2-c2cn(C)c(=O)cc21 [Compound 8F, 2-((5R,7R)-7-(4-chlorophenyl)-9-methoxy-2-methyl-3-oxo-2,3,5,7-tetrahydrobenzo[5,6]oxepino[4,3-c]pyridin-5-yl)-N-ethylacetamide] | 12 nM | 24 nM

The remaining lines, values ahead:

IC50 (BRD4-BD1) | EC50 (AML cell line MV4-11) | Structure (SMILES)
61 nM | 175 nM | CCNC(=O)CC1OC(c2ccc(C)cn2)c2cc(OC)ccc2-c2cn(C)c(=O)cc21 (racemic) [Compound 11, ±2-(9-methoxy-2-methyl-7-(5-methylpyridin-2-yl)-3-oxo-2,3,5,7-tetrahydrobenzo[5,6]oxepino[4,3-c]pyridin-5-yl)-N-ethylacetamide]
122 nM | – | CCOC(=O)CC1N=C(C(F)(F)F)c2cc(OC)ccc2-c2cn(C)c(=O)cc21 (racemic) [Compound 18, ±Ethyl-2-(9-methoxy-2-methyl-3-oxo-7-(trifluoromethyl)-3,5-dihydro-2H-benzo[c]pyrido[3,4-e]azepin-5-yl)acetate]
176 nM | – | CCOC(=O)CC1N=C(C)c2cc(OC)ccc2-c2cn(C)c(=O)cc21 (racemic) [Compound 19, ±Ethyl-2-(9-methoxy-2,7-dimethyl-3-oxo-3,5-dihydro-2H-benzo[c]pyrido[3,4-e]azepin-5-yl)acetate]
– | 3 nM | CCNC(=O)CC1N=C(c2ccc(Cl)cc2)c2cc(OC)ccc2-c2cn(C)c(=O)cc21 (racemic) [Compound 25, ±2-(7-(4-chlorophenyl)-9-methoxy-2-methyl-3-oxo-3,5dihydro-2H-benzo[c]pyrido[3,4-e]azepin-5-yl)-N-ethylacetamide]
2 nM | 8 nM | CCNC(=O)CC1N=C(C2CCCCC2)c2cc(OC)ccc2-c2cn(C)c(=O)cc21 (racemic) [Compound 26, ±2-(7-cyclohexyl-9-methoxy-2-methyl-3-oxo-3,5-dihydro-2H-benzo[c]pyrido[3,4-e]azepin-5-yl)-N-ethylacetamide]
4.4 nM | 112 nM | CCNC(=O)CC1N=C(c2ccccn2)c2cc(OC)ccc2-c2cn(C)c(=O)cc21 (racemic) [Compound 27, ±2-(9-methoxy-2-methyl-3-oxo-7-(pyridin-2-yl)-3,5-dihydro-2H-benzo[c]pyrido[3,4-e]azepin-5-yl)-N-ethylacetamide]
36 nM | 326 nM | COc1ccc2c(c1)C(c1ccc(Cl)cc1)=NC(CC(N)=O)c1cc(=O)n(C)cc1-2 (racemic) [Compound 28, ±2-(7-(4-chlorophenyl)-9-methoxy-2-methyl-3-oxo-3,5-dihydro-2H-benzo[c]pyrido[3,4-e]azepin-5-yl)acetamide]
< 0.5 nM | 13 nM | CCNC(=O)CC1N=C(c2c(F)cccc2F)c2cc(OC)ccc2-c2cn(C)c(=O)cc21 (racemic) [Compound 38, ±2-(7-(2,6-difluorophenyl)-9-methoxy-2-methyl-3-oxo-3,5-dihydro-2H-benzo[c]pyrido[3,4-e]azepin-5-yl)-N-ethylacetamide]
